Experimental data from patent publication US11149031B2, “Substituted N-(3-fluoropropyl)-pyrrolidine compounds, processes for their preparation and therapeutic uses thereof” (SANOFI, priority 2016, dated 2021).
pIC50: −log10 of the molar value. Read-outs that look alike come from different tables or passages of the source.

Assays:
[1] = target: His6-ERα298-554 D538G mutant (ERα ligand-binding domain) (Homo sapiens (Human), UniProt P03372, D538G); assay: Test A: biochemical antagonist activity, LanthaScreen TR-FRET ERα coactivator assay, D538G mutant; details: read-out: Antagonism D538G IC50
In short: (§1)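 TR-FRET 520:495 nm emission ratio read after overnight room-temperature incubation; IC50 derived by 4-parameter logistic fit. Mix: 0.5 nM receptor LBD, 0.5 nM Tb-His6 antibody, 250 nM PGC1a peptide, 3 nM or 10 nM estradiol, pH 7.4 phosphate buffer.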

[2] = system: MCF7 cells (breast tumor cells) WT; assay: Test B: cell proliferation/viability assay (CellTiter-Glo) on MCF7 WT; type: cell-based; details: Homo sapiens, MCF7, 168 h, 7 days of compound exposure
In short: (§2)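 MCF7 WT / ER mutant lines (estradiol-independent, Tyr537Ser or Asp538Gly); stripped-serum, phenol red-free MEM; 9 pt 1:5 dil, 3-0.000001 μM final; 7 d; CellTiter-Glo RLU → % viability vs untreated, background-subtracted.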

[3] = target: His6-ERα298-554 Y537S mutant (ERα ligand-binding domain) (Homo sapiens (Human), UniProt P03372, Y537S); assay: Test A: biochemical antagonist activity, LanthaScreen TR-FRET ERα coactivator assay, Y537S mutant; details: read-out: Antagonism Y537S IC50
In short: as §1

[4] = system: MCF7 cells expressing mutant estrogen receptor Asp 538 Gly; assay: Test B: cell proliferation/viability assay (CellTiter-Glo) on MCF7 Asp 538 Gly mutant; type: cell-based; details: Homo sapiens, MCF7, 168 h, MCF7 cells expressing ER Asp 538 Gly mutant, 7 days of compound exposure, read-out: proliferation MCF7 D538G IC50
In short: as §2

[5] = system: MCF7 cells expressing mutant estrogen receptor Tyr 537 Ser; assay: Test B: cell proliferation/viability assay (CellTiter-Glo) on MCF7 Tyr 537 Ser mutant; type: cell-based; details: Homo sapiens, MCF7, 168 h, MCF7 cells expressing ER Tyr 537 Ser mutant, 7 days of compound exposure, read-out: proliferation MCF7 Y537S IC50
In short: as §2

[6] = target: ERα in MCF7 cells (Homo sapiens (Human), UniProt P03372); assay: Test C: estrogen receptor degradation activity, ERα in cell western assay in MCF7 cells; type: cell-based; details: for DC50: 4 hours post compound addition, ERα in cell western, read-out: Degradation IC50; for % Degradation at 3 μM: 4 hours, relative to fulvestrant
In short: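 Cells seeded in stripped-serum medium are dosed the next day across a nine-concentration series (3 down to 0.000018 μM). Four hours later they are fixed, blocked, probed overnight with anti-ERα antibody, then labelled with an Alexa 488 secondary and a DNA dye before plate scanning.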

[7] = target: His6-ERα298-554 WT (ERα ligand-binding domain) (Homo sapiens (Human), UniProt P03372); assay: Test A: biochemical antagonist activity, LanthaScreen TR-FRET ERα coactivator assay, WT; details: read-out: Antagonism WT IC50
In short: as §1

[8] = asterisk (*): protocol using 10 nM estradiol

His6-ERα298-554 Y537S mutant (ERα ligand-binding domain), sequence (P03372 298-554 Y537S): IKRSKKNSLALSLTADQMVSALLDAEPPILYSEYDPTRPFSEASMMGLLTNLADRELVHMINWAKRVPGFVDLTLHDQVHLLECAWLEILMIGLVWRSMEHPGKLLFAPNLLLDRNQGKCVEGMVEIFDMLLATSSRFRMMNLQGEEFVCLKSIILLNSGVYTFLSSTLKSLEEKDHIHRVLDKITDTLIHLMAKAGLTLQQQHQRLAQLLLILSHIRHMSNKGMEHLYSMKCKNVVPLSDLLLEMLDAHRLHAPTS
His6-ERα298-554 WT (ERα ligand-binding domain), sequence (P03372 298-554): as the sequence (P03372 298-554 Y537S) above, with S240Y counted along it
His6-ERα298-554 D538G mutant (ERα ligand-binding domain), sequence (P03372 298-554 D538G): as the sequence (P03372 298-554 Y537S) above, with S240Y, D241G counted along it
ERα in MCF7 cells, sequence (P03372 whole entry): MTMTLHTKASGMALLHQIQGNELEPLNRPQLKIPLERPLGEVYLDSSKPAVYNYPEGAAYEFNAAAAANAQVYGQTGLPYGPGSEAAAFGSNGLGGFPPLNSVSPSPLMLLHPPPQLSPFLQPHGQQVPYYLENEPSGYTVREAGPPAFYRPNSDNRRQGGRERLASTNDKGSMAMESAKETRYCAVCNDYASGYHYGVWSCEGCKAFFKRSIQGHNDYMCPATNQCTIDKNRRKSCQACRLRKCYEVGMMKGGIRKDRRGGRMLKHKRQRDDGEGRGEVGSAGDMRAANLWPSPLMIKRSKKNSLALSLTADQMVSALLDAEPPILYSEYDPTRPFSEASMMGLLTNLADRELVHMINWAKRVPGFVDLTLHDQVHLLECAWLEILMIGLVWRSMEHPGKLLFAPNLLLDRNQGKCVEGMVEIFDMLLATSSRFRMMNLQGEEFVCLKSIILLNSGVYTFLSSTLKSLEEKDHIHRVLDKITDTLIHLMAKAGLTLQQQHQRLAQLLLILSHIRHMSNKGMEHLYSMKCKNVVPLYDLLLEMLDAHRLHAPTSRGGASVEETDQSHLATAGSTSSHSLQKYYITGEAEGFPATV

| SMILES | pIC50 [1, 8] | pIC50 [2] | pIC50 [3, 8] | pIC50 [4] | pIC50 [5] | DC50 [6] [nM] | % Degradation at 3 μM [6] [%] | pIC50 [7, 8] | pIC50 ([1]; protocol with 3 nM estradiol) | pIC50 ([3]; protocol with 3 nM estradiol) | pIC50 ([7]; protocol with 3 nM estradiol) |
| --- | --- | --- | --- | --- | --- | --- | --- | --- | --- | --- | --- |
| Cc1ccc(C2=C(c3ccc(O[C@H]4CCN(CCCF)C4)cc3)c3ccc(O)cc3SC2)c(F)c1F [Example 64, 3-(2,3-difluoro-4-methyl-phenyl)-4-[4-[(3S)-1-(3-fluoropropyl)pyrrolidin-3-yl]oxyphenyl]-2H-thiochromen-7-ol] | 6.31 | 9.00 | 6.69 | 9.15 | 8.30 | 0.2 | 81 | 7.62 | – | – | – |
| CC(C)(C)OC(=O)Nc1ccc(C2=C(c3ccc(O[C@H]4CCN(CCCF)C4)cc3)c3ccc(O)cc3SC2)c(F)n1 [Example 65, tert-butyl N-[6-fluoro-5-[4-[4-[(3S)-1-(3-fluoropropyl)pyrrolidin-3-yl]oxyphenyl]-7-hydroxy-2H-thiochromen-3-yl]-2-pyridyl]carbamate] | < 5.40 | 7.68 | < 5.40 | 7.68 | 6.24 | 38 | 71 | 5.91 | – | – | – |
| Oc1ccc2c(c1)SCC(c1ccc(SC(F)(F)F)cc1)=C2c1ccc(O[C@H]2CCN(CCCF)C2)cc1 [Example 66, 4-[4-[(3S)-1-(3-fluoropropyl)pyrrolidin-3-yl]oxyphenyl]-3-[4-(trifluoromethylsulfanyl)phenyl]-2H-thiochromen-7-ol] | – | 8.70 | – | 8.70 | 8.10 | 0.2 | 84 | – | 5.74 | 6.44 | 7.23 |
| Oc1ccc2c(c1)SCC(c1ccc3ncccc3c1)=C2c1ccc(O[C@H]2CCN(CCCF)C2)cc1 [Example 67, 4-[4-[(3S)-1-(3-fluoropropyl)pyrrolidin-3-yl]oxyphenyl]-3-(6-quinolyl)-2H-thiochromen-7-ol] | 5.74 | 7.92 | 5.89 | 7.80 | 7.07 | 1 | 90 | 6.92 | – | – | – |
| CCOc1nccc(C2=C(c3ccc(O[C@H]4CCN(CCCF)C4)cc3)c3ccc(O)cc3SC2)c1F [Example 69, 3-(2-ethoxy-3-fluoro-4-pyridyl)-4-[4-[(3S)-1-(3-fluoropropyl)pyrrolidin-3-yl]oxyphenyl]-2H-thiochromen-7-ol] | < 5.40 | 9.70 | < 5.40 | 9.70 | 9.10 | 0.2 | 81 | 5.80 | – | – | – |
| Nc1ccc(C2=C(c3ccc(O[C@H]4CCN(CCCF)C4)cc3)c3ccc(O)cc3SC2)c(F)n1 [Example 72, 3-(6-amino-2-fluoro-3-pyridyl)-4-[4-[(3S)-1-(3-fluoropropyl)pyrrolidin-3-yl]oxyphenyl]-2H-thiochromen-7-ol] | 6.69 | 8.70 | 6.97 | 9.30 | 9.00 | 0.2 | 91 | 7.96 | – | – | – |
| CC1(C)CNc2ccc(C3=C(c4ccc(O[C@H]5CCN(CCCF)C5)cc4)c4ccc(O)cc4SC3)cc21 [Example 73, 3-(3,3-dimethylindolin-5-yl)-4-[4-[(3S)-1-(3-fluoropropyl)pyrrolidin-3-yl]oxyphenyl]-2H-thiochromen-7-ol] | < 5.40 | 7.02 | < 5.40 | 6.92 | 6.42 | 6 | 86 | 5.96 | – | – | – |
| CCN(CC)c1ccc(C2=C(c3ccc(O[C@H]4CCN(CCCF)C4)cc3)c3ccc(O)cc3SC2)c(F)c1 [Example 74, 3-[4-(diethylamino)-2-fluoro-phenyl]-4-[4-[(3S)-1-(3-fluoropropyl)pyrrolidin-3-yl]oxyphenyl]-2H-thiochromen-7-ol] | < 5.40 | 7.92 | 5.62 | 7.80 | 6.76 | 4 | 83 | 6.49 | – | – | – |
